The text below walks through data of US20250136581A1, “SUBSTITUTED TRIAZOLE DERIVATIVE, PREPARATION METHOD THEREFOR, PHARMACEUTICAL COMPOSITION THEREOF, AND USE THEREOF” (SHANGHAI SIMR BIOTECHNOLOGY CO., LTD., priority 2021, published 2025).

Test [1] concerns the target α5-GABAA receptor (α5, β3, γ2 subunits) (Homo sapiens (Human), UniProt P18507+P31644). The test is described as follows: Whole cell patch clamp, inverse agonist efficacy in HEK293 cells expressing α5-GABAA receptor. The test is classed as cell-based. The conditions noted are these: HEK293, drug 100 nM, GABA 0.05 μM, −60 mV; read-out: Compound inverse agonist efficacy %. The source says: The inventors used electrophysiological methods to determine the inverse agonist efficacy of the drugs to be tested on the α5-GABAA receptor. The detailed methods are as follows:
Different subunits of the GABAA receptor were co-expressed in the HEK293 cell line to construct a fully functional GABAA receptor. The α, β, and γ subunits are essential to form a complete functional GABAA receptor. In this example, the present disclosure had established the following cell model: α5 subunit (see GenBank Accession No.: NM_000810.3 for protein sequences), β3 subunit (see GenBank Accession No.: NM_000814.5 for protein sequences), and γ2 subunit (see GenBank Accession No.: NM_000816.3 for protein sequences) were co-expressed in the HEK293 cell line, followed by screening the monoclonal stably transfected cell line. This cell line expressed a fully functional α5-GABAA receptor.
The monoclonal stably transfected HEK293 cell line expressing α5-GABAA receptor were cultured in 10 cm culture dishes and passaged when the cells grew to 80% to 90% confluent. During passaging, the culture medium was aspirated first, then 3 mL of DPBS phosphate buffer salt (Gibco™) was added to the culture dishes, and the culture dishes were shaken slightly, and DPBS was aspirated. 1 mL of trypsin (TrypLE Express, Gibco™) was added thereto, and the cells were digested at 37° C. for 1-2 minutes. Then 3 mL of complete medium (DMEM+10% FBS (Gibco™)) was added and the cells at the bottom of the culture dishes were dispersed. The cell suspension was transferred to a 15 mL centrifugal tube (Corning) and then centrifuged at 200 g for 3 minutes. The supernatant was discarded, 4 mL of complete medium was added, and the cells were gently blown and resuspended for use. If cell passaging was performed, the cell suspension was diluted at a ratio of 1:5 or 1:10. If cells for electrophysiological detection were prepared, the cell suspension was diluted in a ratio of 1:12, then added into a 24-well dish (Corning™) in which glass slides were placed and pretreated with Poly-D-Lysine, and the experiment was carried out after the cells adhered to the wall. The cells used for electrophysiology was cultured no more than 48 hours.
Drug concentration setting: The final drug concentration used in drug screening was 100 nM, and the GABA concentration was 0.05 μM. The whole cell patch clamp technique was used in electrophysiological assays, which could refer to the literature (I. Lecker, Y. Yin, D. S. Wang and B. A. Orser, British Journal of Anaesthesia, 2013, 110 (Si), i73-i81). The compositions of the extracellular solution for electrophysiology assay were as follows: 150 mM NaCl, 5 mM KCl, 2.5 mM CaCl2, 1 mM MgCl2, 10 mM HEPES, and 10 mM glucose (pH 7.4); the formulation of the electrode internal fluid for electrophysiology use was as follows: 140 mM CsCl, 11 mM EGTA, 10 mM HEPES, 2 mM CaCl2, 1 mM MgCl2, 4 mM MgATP, and 2 mM TEA (pH 7.3). The signal acquisition used an EPC-10 amplifier and the PatchMaster software (HEKA) or Axon700B amplifier and Clampex software (AXON). The recording electrode was pulled from borosilicate glass, and the electrode resistance was 4 to 6 MQ. The ALA-VC-8PG™ system was used for drug application. Single cell that grew independently was selected for recording. During recording, the cell membrane potential was clamped at −60 mV. During experiment, an extracellular solution was applied outside the cells for about 20 seconds. When the baseline reached to a stable state, the extracellular solution was switched to the GABA solution to induce an inward current. After about 20 to 40 seconds until the current was stable, the solution was switched to a corresponding drug solution to detect the effect of the drug. At last, the solution was switched to the extracellular solution, and the experiment was terminated when the baseline returned to the level before drug application. […]
On the technique in general: The patch-clamp technique gives a direct electrical read-out from membranes.

Test [2] addresses human α5β3γ2 receptors (α5-GABAA receptor) (Homo sapiens (Human), UniProt P18507+P31644). Nature of the test: 3H-flunitrazepam competition binding, human α5β3γ2 GABAA receptor. The note with it: HEK293 cell membranes, 1 nM 3H-flunitrazepam. The gist of the method: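 HEK293 membranes stably expressing each human receptor subtype ([…]) competed against 1 nM 3H-flunitrazepam in Tris buffer, 1 h at room temperature; flumazenil defined the low-signal control. Eight-point 4-fold test-compound dilutions; GF/C filtration and scintillation counting gave IC50 by curve fitting, converted to Ki.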

Read-outs that look alike come from different tables or passages of the source.

As to `Cc1nnn(-c2ccc(C(F)F)cc2)c1COc1ccc(N2CCNC(=O)C2C)nn1` (stereo not drawn) [Example 11, 4-(6-((1-(4-(Difluoromethyl)phenyl)-4-methyl-1H-1,2,3-triazol-5-yl)methoxy)pyridazin-3-yl)-3-methylpiperazin-2-one], the inhibition at 0.1 µM in test [1] turned out to be 49.1%. The inhibition constant (Ki) in test [2] (read-out: α5-GABAAR Ki) amounted to 0.58 nM.
Regarding `CNC(=O)[C@@H]1CN(c2ccc(OCc3c(C)nnn3-c3ccc(C(F)F)cc3)nn2)CCN1` [Example 30, (S)-4-(6-((1-(4-(Difluoromethyl)phenyl)-4-methyl-1H-1,2,3-triazol-5-yl)methoxy)pyridazin-3-yl)-N-methylpiperazine-2-carboxamide], the inhibition at 0.1 µM in test [1] came to 41.9%. Also, in test [2] (read-out: α5-GABAAR Ki), the Ki was found to be 2.72 nM.
Take `Cc1nnn(-c2ccc(C(F)F)cc2)c1COc1ccc(N2CCN3[C@@H](C2)C(=O)N[C@@H]2CCC[C@@H]23)nn1` [Example 198, (4aS,6aR,9aS)-3-(6-((1-(4-(difluoromethyl)phenyl)-4-methyl-1H-1,2,3-triazol-5-yl)methoxy)pyridazin-3-yl)decahydrocyclopenta[e]pyrazino[1,2-a]pyrazin-5(1H)-one]: the inhibition at 0.1 µM in test [1] was found to be 48.2%. In test [2] (α5-GABAAR Ki), this compound showed an inhibition constant Ki of 3.13 nM.
On to `Cc1nnn(-c2ccc(C(F)F)cc2)c1COc1ccc(C2=CC(=O)NCC2)nn1` [Example 57, 4-(6-((1-(4-(Difluoromethyl)phenyl)-4-methyl-1H-1,2,3-triazol-5-yl)methoxy)pyridazin-3-yl)-5,6-dihydropyridin-2(1H)-one], for which, in test [1], the inhibition at 0.1 µM stood at 52%. Also, the inhibition constant Ki in test [2] (read-out: α5-GABAAR Ki) came to 0.27 nM.
Take `Cc1nnn(-c2ccc(C(F)F)cc2)c1COc1ccc(N2CC(=O)N[C@H](C(=O)O)C2)nn1` [Example 36, (S)-4-(6-((1-(4-(Difluoromethyl)phenyl)-4-methyl-1H-1,2,3-triazol-5-yl)methoxy)pyridazin-3-yl)-6-oxopiperazine-2-carboxylic acid]: the inhibition at 0.1 µM in test [1] came to 49%. For the same compound, the inhibition constant (Ki) in test [2] (read-out: α5-GABAAR Ki) was 13.6 nM.
As for `Cc1nnn(-c2ccc(C(F)F)cc2)c1COc1ccc(N2CCN3CCN(C4COC4)C(=O)[C@@H]3C2)nn1` [Example 147, (S)-8-(6-((1-(4-(Difluoromethyl)phenyl)-4-methyl-1H-1,2,3-triazol-5-yl)methoxy)pyridazin-3-yl)-2-(oxetan-3-yl)hexahydro-2H-pyrazino[1,2-a]pyrazin-1(6H)-one], the inhibition at 0.1 µM in test [1] worked out at 54.5%. The inhibition constant (Ki) in test [2] (read-out: α5-GABAAR Ki) was 6.55 nM.
Consider `Cc1nnn(-c2ccc(C(F)F)cc2)c1COc1ccc(N2CCN(CCN3CCC(F)(F)C3)C(=O)C2)nn1` [Example 110, 4-(6-((1-(4-(Difluoromethyl)phenyl)-4-methyl-1H-1,2,3-triazol-5-yl)methoxy)pyridazin-3-yl)-1-(2-(3,3-difluoropyrrolidin-1-yl)ethyl)piperazin-2-one], for which the inhibition at 0.1 µM in test [1] is 47.5%. Moreover, the Ki in test [2] (read-out: α5-GABAAR Ki) amounted to 1.6 nM.
The like results for `Cc1nnn(-c2ccc(C(F)F)cc2)c1COc1ccc(N2CC(C(=O)NC3COC3)C2)nn1` [Example 45, 1-(6-((1-(4-(Difluoromethyl)phenyl)-4-methyl-1H-1,2,3-triazol-5-yl)methoxy)pyridazin-3-yl)-N-(oxetan-pyridin-3-yl)azetidine-3-carboxamide] were, in that order, 50.8% and 3.26 nM.
`Cc1nnn(-c2ccc(C(F)F)cc2)c1COc1ccc(N2CC(C(=O)NC3CCN(C)CC3)C2)nn1` [Example 46, 1-(6-((1-(4-(Difluoromethyl)phenyl)-4-methyl-1H-1,2,3-triazol-5-yl)methoxy)pyridazin-3-yl)-N-(1-methylpiperidin-4-yl)azetidine-3-carboxamide]: the inhibition at 0.1 µM in test [1] was determined as 41.8%. For the same compound, the Ki in test [2] (read-out: α5-GABAAR Ki) came out at 1.91 nM.
In the case of `O=C1CN(c2ccc(OCc3c(Cl)nnn3-c3ccc(C(F)F)cc3)nn2)CCN1` [Example 131, 4-(6-((4-Chloro-1-(4-(difluoromethyl)phenyl)-1H-1,2,3-triazol-5-yl)methoxy)pyridazin-3-yl)piperazin-2-one], the inhibition at 0.1 µM in test [1] turned out to be 47.6%. The Ki in test [2] (read-out: α5-GABAAR Ki) stood at 1.34 nM.
As for `CC(=O)N1CCN(c2ccc(OCc3c(C)nnn3-c3ccc(C(F)F)cc3)nn2)CC1` [Example 171, 1-(4-(6-((1-(4-(Difluoromethyl)phenyl)-4-methyl-1H-1,2,3-triazol-5-yl)methoxy)pyridazin-3-yl)piperazin-1-yl)ethan-1-one], in test [1], the inhibition at 0.1 µM came to 42%. In test [2] (read-out: α5-GABAAR Ki), the Ki is 1.07 nM.
Take `Cc1nnn(-c2ccc(C(F)F)cc2)c1COc1ccc(N2CC(C(=O)Nc3ccn(C)n3)C2)nn1` [Example 101, 1-(6-((1-(4-(Difluoromethyl)phenyl)-4-methyl-1H-1,2,3-triazol-5-yl)methoxy)pyridazin-3-yl)-N-(1-methyl-1H-pyrazol-3-yl)azetidine-3-carboxamide]: in test [1], the inhibition at 0.1 µM is 43.9%. In test [2] (read-out: α5-GABAAR Ki), the inhibition constant Ki is 1.15 nM.
With `Cc1nnn(-c2ccc(C(F)F)cc2)c1COc1ccc(N2CCN3C(=O)CNC(=O)[C@H]3C2)nn1` [Example 65, (R)-8-(6-((1-(4-(Difluoromethyl)phenyl)-4-methyl-1H-1,2,3-triazol-5-yl)methoxy)pyridazin-3-yl)hexahydro-1H-pyrazino[1,2-a]pyrazine-1,4(6H)-dione], in test [1], the inhibition at 0.1 µM stood at 56.1%. Further, the inhibition constant Ki in test [2] (read-out: α5-GABAAR Ki) was determined as 2.37 nM.
Regarding `Cc1nnn(-c2ccc(C(F)F)cc2)c1COc1ccc(N2CCN(CC3CC3)C(=O)C2)nn1` [Example 97, 1-(Cyclopropylmethyl)-4-(6-((1-(4-(difluoromethyl)phenyl)-4-methyl-1H-1,2,3-triazol-5-yl)methoxy)pyridazin-3-yl)piperazin-2-one], the inhibition at 0.1 µM in test [1] was 49.2%. The compound further returned a Ki in test [2] (α5-GABAAR Ki) of 1.11 nM.
For the compound `Cc1nnn(-c2ccc(C(F)F)cc2)c1COc1ccc(N2CC(C(=O)O)C2)nn1` [Example 37, 1-(6-((1-(4-(Difluoromethyl)phenyl)-4-methyl-1H-1,2,3-triazol-5-yl)methoxy)pyridazin-3-yl)azetidine-3-carboxylic acid], in test [1], the inhibition at 0.1 µM was found to be 50.6%. For the same compound, the Ki in test [2] (read-out: α5-GABAAR Ki) was 12.3 nM.
Consider `Cn1nnc(-c2ccc(F)cc2)c1COc1ccc(N2CCNC(=O)C2)nn1` [Example 128, 4-(6-((4-(4-Fluorophenyl)-1-methyl-1H-1,2,3-triazol-5-yl)methoxy)pyridazin-3-yl)piperazin-2-one], for which, in test [1], the inhibition at 0.1 µM was 53.9%. In test [2] (read-out: α5-GABAAR Ki), the Ki came to 22.5 nM.
Consider `COCCN1CCN(c2ccc(OCc3c(C)nnn3-c3ccc(C(F)F)cc3)nn2)CC1=O` [Example 139, 4-(6-((1-(4-(Difluoromethyl)phenyl)-4-methyl-1H-1,2,3-triazol-5-yl)methoxy)pyridazin-3-yl)-1-(2-methoxyethyl)piperazin-2-one], for which, in test [1], the inhibition at 0.1 µM was 46.4%. Besides, the inhibition constant Ki in test [2] (read-out: α5-GABAAR Ki) stood at 1.37 nM.
For the compound `Cc1nnn(-c2ccc(C(F)F)cc2)c1COc1ccc(N2CC(C(=O)NC3CCOCC3)C2)nn1` [Example 50, 1-(6-((1-(4-(Difluoromethyl)phenyl)-4-methyl-1H-1,2,3-triazol-5-yl)methoxy)pyridazin-3-yl)-N-(tetrahydro-2H-pyran-4-yl)azetidine-3-carboxamide], the inhibition at 0.1 µM in test [1] worked out at 41.5%. Moreover, the Ki in test [2] (read-out: α5-GABAAR Ki) worked out at 6.43 nM.

By Ki is commonly meant the dissociation constant of the complex between target and ligand, obtained from inhibition or displacement.
